According to article PMC4061482 (Frontiers in Oncology, 2014):

Biological target: T1, AKR1C3 (Homo sapiens, UniProt P42330)
T1 sequence (P42330 1-323): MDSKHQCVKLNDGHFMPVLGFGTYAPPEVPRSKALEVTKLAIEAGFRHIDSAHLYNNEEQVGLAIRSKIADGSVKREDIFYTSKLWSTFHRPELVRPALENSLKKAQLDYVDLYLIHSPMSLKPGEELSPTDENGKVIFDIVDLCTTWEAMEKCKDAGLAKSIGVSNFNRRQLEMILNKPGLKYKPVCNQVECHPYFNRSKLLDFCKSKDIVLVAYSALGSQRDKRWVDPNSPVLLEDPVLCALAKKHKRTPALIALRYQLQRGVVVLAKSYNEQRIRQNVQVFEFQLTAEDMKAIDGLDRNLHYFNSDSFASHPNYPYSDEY
Test: 11β-PGF2α formation from PGD2 by ELISA in the cell line panel
Assay type: cell-based
Details: 10 μM; all cell lines that expressed AKR1C3; 28 nM PGD2, 24 h
Experimental: Cells were seeded into 96-well plates in hormone-deprived media at appropriate seeding densities [10,000–50,000 cells per well for all lines except HCC1500 (100,000 cells per well; 11β-PGF2α ELISA)] to reach approximately 70% confluency at the time of sampling and were left to settle for 24 h at 37°C and 5% CO2. Inhibitors were added to the plates at single or multiple concentrations for 1 h prior to administration of equimolar (28 nM) concentrations of PGD2 (11β-PGF2α ELISA), androstenedione (testosterone ELISA), or estrone (17β-estradiol ELISA). The plates were returned to the incubator for a further 24 h before cell supernatant was removed for analysis of 11β-PGF2α, testosterone, or 17β-estradiol by ELISA as per manufacturer’s instructions (11β-PGF2α and testosterone ELISA, Cayman Chemical Company; 17β-estradiol ELISA, Oxford Biomedical Research), and cells were fixed for sulforhodamine B analysis as described below. Each ELISA plate was read at a wavelength of 405 nm (11β-PGF2α and testosterone) or 650 nM (17β-estradiol) on a SpectraMax M2 microplate reader (Molecular Devices) and quantitated against a standard curve generated in hormone-deprived culture media. […]
The PGD2 11-ketoreductase activity of AKR1C3 was determined by stimulating the cell line panel with PGD2 for 24 h, then detecting 11β-PGF2α levels by ELISA.

Structure (SMILES): CC1CCCCN1S(=O)(=O)c1ccc(N2CCCC2=O)cc1 (stereo not shown) [SN33638]
- Reduction of 11β-PGF2α levels: ≥ 80%
